Where a name gives a salt, the structure may show the parent alone.
Columns and labels:
[1] = molecular target: Bcl-2 protein (histag-Bcl-2, UniProtKB P10415) (Homo sapiens (Human), UniProt P10415); test: Inhibition of Bcl-2 by the fluorescence polarisation technique; assay type: binding; conditions: fluorescence polarisation test; incubation for 2 hours; read-out: IC50 (nM) Bcl-2 FP
Source text: For partial inhibitors, the percentage fluorescence polarisation inhibition for a given concentration of the test compound is indicated.

[2] = system: RS4; 11 leukaemia cell line; test: In vitro cytotoxicity, Microculture Tetrazolium Assay (MTT); assay type: cell-based; conditions: Homo sapiens, 11 cells exposed for 48 hours
Protocol: The cytotoxicity studies were carried out on the RS4; 11 leukaemia cell line and on H146 small Cell Lung Carcinoma cell line. The cells are distributed onto microplates and exposed to the test compounds for 48 hours. The cell viability is then quantified by a colorimetric assay, the Microculture Tetrazolium Assay (Cancer Res., 1987, 47, 939-942).

Sequence of Bcl-2 protein (P10415 whole entry): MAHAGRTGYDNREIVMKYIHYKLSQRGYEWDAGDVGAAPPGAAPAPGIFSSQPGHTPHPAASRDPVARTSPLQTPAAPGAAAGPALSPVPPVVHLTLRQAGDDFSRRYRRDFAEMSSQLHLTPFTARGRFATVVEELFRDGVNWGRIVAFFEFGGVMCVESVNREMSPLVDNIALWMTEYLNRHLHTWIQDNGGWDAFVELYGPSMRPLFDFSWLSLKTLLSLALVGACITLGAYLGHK

In the case of `Cc1c(C(=O)N(C)c2ccccc2)cc(-c2cc3c(cc2C(=O)N2Cc4ccccc4C[C@H]2C)CN(C(=O)Oc2cccc(OCCN(C)C)c2)CC3)n1C` [Example 448, 3-[2-(Dimethylamino)ethoxy]phenyl 6-{1,5-dimethyl-4-[methyl(phenyl)carbamoyl]-1H-pyrrol-2-yl}-7-[(3R)-3-methyl-1,2,3,4-tetrahydroisoquinoline-2-carbonyl]-1,2,3,4-tetrahydroisoquinoline-2-carboxylate], the IC50 [1] is reported as 4 nM and the IC50 [2] is reported as 8.2 nM.
Work on `C[C@@H]1Cc2ccccc2CN1C(=O)c1cc2c(cc1-c1cc(C(=O)N(C)c3ccc(O)cc3)c3n1CCCC3)CCN(C(=O)Cc1ccc(NCCN3CCOCC3)cc1)C2` [Example 96, N-(4-Hydroxyphenyl)-N-methyl-3-{7-[(3R)-3-methyl-1,2,3,4-tetrahydroisoquinoline-2-carbonyl]-2-[2-(4-{[2-(morpholin-4-yl)ethyl]amino}phenyl)acetyl]-1,2,3,4-tetrahydroisoquinolin-6-yl}-5,6,7,8-tetrahydroindolizine-1-carboxamide] yielded an IC50 [1] of 3.9 nM and an IC50 [2] of 9.1 nM.
Work on `C[C@@H]1Cc2ccccc2CN1C(=O)c1cc2c(cc1-c1cc(C(=O)N(C)c3ccc(O)cc3)c3n1CCCC3)CCN(C(=O)Cc1cccc(N3CCN(C)CC3)c1)C2` [Example 169, N-(4-Hydroxyphenyl)-N-methyl-3-{7-[(3R)-3-methyl-1,2,3,4-tetrahydroisoquinoline-2-carbonyl]-2-{2-[3-(4-methylpiperazin-1-yl)phenyl]acetyl}-1,2,3,4-tetrahydroisoquinolin-6-yl}-5,6,7,8-tetrahydroindolizine-1-carboxamide] yielded an IC50 [1] of 3.3 nM and an IC50 [2] of 3 nM.
`CCC(=O)N1CCc2cc(-c3cc(C(=O)N(C)c4ccc(O)cc4)c4n3CCCC4)c(C(=O)N3Cc4ccccc4C[C@H]3C)cc2C1` [Example 34, N-(4-Hydroxyphenyl)-N-methyl-3-{7-[(3R)-3-methyl-1,2,3,4-tetrahydroisoquinoline-2-carbonyl]-2-propanoyl-1,2,3,4-tetrahydroisoquinolin-6-yl}-5,6,7,8-tetrahydroindolizine-1-carboxamide] gave an IC50 [1] of 4.9 nM and an IC50 [2] of 19 nM.
Work on `Cc1c(C(=O)N(C)c2ccc(O)cc2)cc(-c2cc3c(cc2C(=O)N2Cc4ccccc4C[C@H]2CN2CCOCC2)CN(C(=O)/C=C/c2ccccc2)CC3)n1C` [Example 131, N-(4-Hydroxyphenyl)-N,1,2-trimethyl-5-{7-[(3S)-3-(morpholin-4-ylmethyl)-1,2,3,4-tetrahydroisoquinoline-2-carbonyl]-2-[(2E)-3-phenylprop-2-enoyl]-1,2,3,4-tetrahydroisoquinolin-6-yl}-1H-pyrrole-3-carboxamide] yielded an IC50 [1] of 4 nM and an IC50 [2] of 11 nM.
For `Cc1c(C(=O)N(C)c2ccc(O)cc2)cc(-c2cc3c(cc2C(=O)N2Cc4ccccc4C[C@H]2C)CN(C(=O)COCc2ccccc2)C3)n1C` [Example 160, 5-{2-[2-(Benzyloxy)acetyl]-6-[(3R)-3-methyl-1,2,3,4-tetrahydroisoquinoline-2-carbonyl]-2,3-dihydro-1H-isoindol-5-yl}-N-(4-hydroxyphenyl)-N,1,2-trimethyl-1H-pyrrole-3-carboxamide], the IC50 [1] was 6.9 nM and the IC50 [2] was 86 nM.
With `Cc1c(C(=O)N(C)c2ccccc2)cc(-c2cc3c(cc2C(=O)N2Cc4ccccc4C[C@H]2CN2CCOCC2)CN(C(=O)Oc2ccc(C#N)cc2)CC3)n1C` [Example 152, 4-Cyanophenyl 6-{1,5-dimethyl-4-[methyl(phenyl)carbamoyl]-1H-pyrrol-2-yl}-7-[(3S)-3-(morpholin-4-ylmethyl)-1,2,3,4-tetrahydroisoquinoline-2-carbonyl]-1,2,3,4-tetrahydroisoquinoline-2-carboxylate] the IC50 [1] was 6.5 nM and the IC50 [2] was 29 nM.
In the case of `Cc1c(C(=O)N(C)c2ccc(O)cc2)cc(-c2cc3c(cc2C(=O)N2Cc4ccccc4C[C@H]2CN2CCOCC2)CN(C(=O)Cc2ccccc2)CC3)n1C` [Example 89, N-(4-Hydroxyphenyl)-N,1,2-trimethyl-5-{7-[(3S)-3-(morpholin-4-ylmethyl)-1,2,3,4-tetrahydroisoquinoline-2-carbonyl]-2-(2-phenylacetyl)-1,2,3,4-tetrahydroisoquinolin-6-yl}-1H-pyrrole-3-carboxamide], the IC50 [1] is reported as 3.5 nM and the IC50 [2] is reported as 24 nM.
In the case of `CN(C(=O)c1cc(-c2cc3c(cc2C(=O)N2Cc4ccccc4C[C@H]2CN2CCOCC2)CNCC3)n2c1CCCC2)c1ccc(O)cc1` [Example 2, N-(4-Hydroxyphenyl)-N-methyl-3-{7-[(3S)-3-(morpholin-4-ylmethyl)-1,2,3,4-tetrahydroisoquinoline-2-carbonyl]-1,2,3,4-tetrahydroisoquinolin-6-yl}-5,6,7,8-tetrahydroindolizine-1-carboxamide dihydrochloride], the IC50 [1] is reported as 397 nM and the IC50 [2] is reported as > 1880 nM.
Work on `Cc1c(C(=O)N(C)c2ccc(O)cc2)cc(-c2cc3c(cc2C(=O)N2Cc4ccccc4C[C@H]2C)CN(C(=O)Nc2ccccc2)CC3)n1C` [Example 253, 6-{4-[(4-Hydroxyphenyl)(methyl)carbamoyl]-1,5-dimethyl-1H-pyrrol-2-yl}-7-[(3R)-3-methyl-1,2,3,4-tetrahydroisoquinoline-2-carbonyl]-N-phenyl-1,2,3,4-tetrahydroisoquinoline-2-carboxamide] yielded an IC50 [1] of 5.2 nM and an IC50 [2] of 22 nM.
`CN(C(=O)c1cc(-c2cc3c(cc2C(=O)N2Cc4ccccc4C[C@H]2CN2CCOCC2)CN(C(=O)Oc2ccc(F)cc2)CC3)n2c1CCCC2)c1ccc(O)cc1` [Example 120, 4-Fluorophenyl 6-{1-[(4-hydroxyphenyl)(methyl)carbamoyl]-5,6,7,8-tetrahydroindolizin-3-yl}-7-[(3S)-3-(morpholin-4-ylmethyl)-1,2,3,4-tetrahydroisoquinoline-2-carbonyl]-1,2,3,4-tetrahydroisoquinoline-2-carboxylate] gave an IC50 [1] of 2.5 nM and an IC50 [2] of 8.2 nM.
For `Cc1c(C(=O)N(C)c2ccc(O)cc2)cc(-c2cc3c(cc2C(=O)N2Cc4ccccc4C[C@H]2CN(C)C)CN(C(=O)Cc2ccccc2)CC3)n1C` [Example 777, 5-{7-[(3S)-3-[(Dimethylamino)methyl]-1,2,3,4-tetrahydroisoquinoline-2-carbonyl]-2-(2-phenylacetyl)-1,2,3,4-tetrahydroisoquinolin-6-yl}-N-(4-hydroxyphenyl)-N,1,2-trimethyl-1H-pyrrole-3-carboxamide], the IC50 [1] was 4.1 nM and the IC50 [2] was 30 nM.
For `C[C@@H]1Cc2ccccc2CN1C(=O)c1cc2c(cc1-c1cc(C(=O)N(C)c3ccc(O)cc3)c3n1CCCC3)CN(C(=O)COc1ccccc1)C2` [Example 52, N-(4-Hydroxyphenyl)-N-methyl-3-{6-[(3R)-3-methyl-1,2,3,4-tetrahydroisoquinoline-2-carbonyl]-2-(2-phenoxyacetyl)-2,3-dihydro-1H-isoindol-5-yl}-5,6,7,8-tetrahydroindolizine-1-carboxamide], the IC50 [1] was 3.8 nM and the IC50 [2] was 56 nM.
For `CN(C(=O)c1cc(-c2cc3c(cc2C(=O)N2Cc4ccccc4C[C@H]2CN2CCOCC2)CN(C(=O)OC(C)(C)C)C3)n2c1CCCC2)c1ccc(O)cc1` [Example 6, tert-Butyl 5-{1-[(4-hydroxyphenyl)(methyl)carbamoyl]-5,6,7,8-tetrahydroindolizin-3-yl}-6-[(3S)-3-(morpholin-4-ylmethyl)-1,2,3,4-tetrahydroisoquinoline-2-carbonyl]-2,3-dihydro-1H-isoindole-2-carboxylate], the IC50 [1] was 95 nM and the IC50 [2] was > 1880 nM.
`Cc1ccccc1OC(=O)N1CCc2cc(-c3cc(C(=O)N(C)c4ccc(O)cc4)c4n3CCCC4)c(C(=O)N3Cc4ccccc4C[C@H]3CN3CCOCC3)cc2C1` [Example 100, 2-Methylphenyl 6-{1-[(4-hydroxyphenyl)(methyl)carbamoyl]-5,6,7,8-tetrahydroindolizin-3-yl}-7-[(3S)-3-(morpholin-4-ylmethyl)-1,2,3,4-tetrahydroisoquinoline-2-carbonyl]-1,2,3,4-tetrahydroisoquinoline-2-carboxylate] gave an IC50 [1] of 3.9 nM and an IC50 [2] of 6.5 nM.
`CN(C(=O)c1cc(-c2cc3c(cc2C(=O)N2Cc4ccccc4C[C@H]2CN2CCOCC2)CN(C(=O)Oc2ccc(C#N)cc2)CC3)n2c1CCCC2)c1ccc(O)cc1` [Example 127, 4-Cyanophenyl 6-{1-[(4-hydroxyphenyl)(methyl)carbamoyl]-5,6,7,8-tetrahydroindolizin-3-yl}-7-[(3S)-3-(morpholin-4-ylmethyl)-1,2,3,4-tetrahydroisoquinoline-2-carbonyl]-1,2,3,4-tetrahydroisoquinoline-2-carboxylate] showed an IC50 [1] of 3.3 nM and an IC50 [2] of 6.4 nM.
Compound `Cc1ccc(OC(=O)N2CCc3cc(-c4cc(C(=O)N(C)c5ccc(O)cc5)c5n4CCCC5)c(C(=O)N4Cc5ccccc5C[C@H]4CN4CCOCC4)cc3C2)cc1` [Example 98, 4-Methylphenyl 6-{1-[(4-hydroxyphenyl)(methyl)carbamoyl]-5,6,7,8-tetrahydroindolizin-3-yl}-7-[(3S)-3-(morpholin-4-ylmethyl)-1,2,3,4-tetrahydroisoquinoline-2-carbonyl]-1,2,3,4-tetrahydroisoquinoline-2-carboxylate hydrochloride] has an IC50 [1] of 3.8 nM and an IC50 [2] of 1.8 nM.
Compound `Cc1c(C(=O)N(C)c2ccccc2)cc(-c2cc3c(cc2C(=O)N2Cc4ccccc4C[C@H]2CN2CCOCC2)CN(C(=O)Cc2ccccc2)CC3)n1C` [Example 117, N,1,2-trimethyl-5-{7-[(3S)-3-(morpholin-4-ylmethyl)-1,2,3,4-tetrahydroisoquinoline-2-carbonyl]-2-(2-phenylacetyl)-1,2,3,4-tetrahydroisoquinolin-6-yl}-N-phenyl-1H-pyrrole-3-carboxamide] has an IC50 [1] of 2.5 nM and an IC50 [2] of 39 nM.

— patent US9809574B2, “Isoindoline or isoquinoline compounds, a process for their preparation and pharmaceutical compositions containing them” (LES LABORATOIRES SERVIER, priority 2013, dated 2017)
